From the METLIN SMRT retention time set (Domingo-Almenara et al. 2019)

Test: gradient 5% acetonitrile 3 min, to 50% in 2 min, to 85% in 15 min, held 3 min, 100 µL/min
Conditions: column: Zorbax Extend-C18 2.1 x 50 mm; eluents: water / acetonitrile, 0.1% formic acid
Outline: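 Retention times come from adduct peaks that were picked computationally and then checked by hand. The standards, pure and pooled in mixtures of ~100 molecules, were run on a Zorbax Extend-C18 column (2.1 × 50 mm, 1.8 μm) at 100 μL/min with water and acetonitrile, each with 0.1% formic acid. Detection was by quadrupole time-of-flight mass spectrometry in positive and negative ionization mode, with a dead volume of 40 μL and a dwell volume of 900 μL.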

| SMILES | RP-LC retention time [s] |
| --- | --- |
| Cc1ccc(C(C)C)c(OCC(=O)N(Cc2ccc(C)o2)C2CCS(=O)(=O)C2)c1 (configuration not stated) | 1110 |
| CC(C)n1nnc2cc(S(=O)(=O)N3CCCC(C(=O)N4CCN(c5ccccn5)CC4)C3)ccc21 (configuration not stated) | 644 |
| O=C(NCCN1CCOCC1)c1ccc2c(c1)CCCN2C(=O)c1ccccc1F | 602 |
| O=C(NCCCN1CCCC1)C1c2ccccc2CC(=O)N1Cc1ccccc1 (configuration not stated) | 604 |
| Cc1ccc(CNC(=O)c2ccc3c(c2)CCN3C(=O)C2CC2)cc1 | 824 |
| CCC(=C(c1ccccc1)c1ccc(OCCN(C)C)cc1)c1ccccc1 | 1010 |
| CCc1nn2c(N3CCN(c4ccccn4)CC3)cc(C)nc2c1-c1ccccc1 | 670 |
| Cc1c(C(=O)N2CCN(c3ccc(Cl)cc3)CC2)sc2nc[nH]c(=O)c12 | 769 |
| O=C(Nc1cnc(N2CCOCC2)nc1)c1cccc(Br)c1 | 828 |
| O=C(Cn1cccc(-c2nc(-c3ccc(F)cc3)no2)c1=O)Nc1ccc2c(c1)OCO2 | 850 |
| Cc1ccc(-c2cc(C(N)=O)[nH]n2)c(C)c1 | 668 |
| Cc1ccc(S(=O)(=O)CCc2noc(C(=O)N3CCC4(CC3)OCCO4)n2)cc1 | 816 |
| Cc1nc(-c2ccc(-c3noc(CNC(=O)c4ccco4)n3)cc2)cs1 | 837 |
| Nc1nc(N2CCCC2)ncc1C(=O)NCc1ccccc1 | 615 |
| CC(C)c1noc(-c2ccc(-n3cnc(C(=O)Nc4ccc(F)cc4)c3)nc2)n1 | 1020 |
| CCOC(=O)c1noc2ncnc(NCCc3ccc(OCC)cc3)c12 | 1060 |
| Cc1c(CNCc2ccccn2)c(C(=O)O)c(C)n1Cc1ccc(F)cc1 | 670 |
| COc1ccc(Cl)cc1Nc1c(-c2nc(C)no2)cnc2nc(C)ccc12 | 794 |
| Cc1ccc(Cl)cc1N1CCN(c2ccc3cc(S(=O)(=O)N4CCCCC4)ccc3n2)CC1 | 1000 |
| CCn1cc(C2=CCN(C(=O)Nc3ccc(OC)c(OC)c3)CC2)c2cccnc21 | 759 |
| Cc1cc(C)n(Cc2ccc(C(=O)N3C[C@H]4C[C@H](C3)[C@H]3CCCC(=O)N3C4)o2)n1 | 630 |
| CC(C)C(=O)Nc1cc(-c2ccccc2)nn(C(C)C(=O)Nc2ccccc2Cl)c1=O (configuration not stated) | 1170 |

| SMILES | RP-LC retention time [s] |
| --- | --- |
| COc1ccc(NC(=O)c2c(O)c3cccnc3n(-c3cccc(F)c3)c2=O)cc1Cl | 1280 |
| Cc1ccc(-c2csc(NC(=O)COc3cc(C)ccc3C(C)C)n2)cc1 | 992 |
| Cc1cc(C)n(CC(O)COc2ccc(C(=O)c3ccc(Cl)cc3)cc2)n1 (configuration not stated) | 848 |
| O=C(NCC1(N2CCOCC2)CCOC1)Nc1ccc2c(c1)OCCO2 (configuration not stated) | 589 |
| CCC(=O)Nc1ccc2c(c1)nc(CN1CCCC1)n2C(C)C | 581 |
| COc1ccc(-c2nc3cnccn3c2Nc2ccccc2OC)cc1 | 863 |
| CCn1cc(C(=O)Nc2ccc(F)c(C)c2)c(S(=O)(=O)N2CCSCC2)n1 | 1040 |
| Cc1ccc(F)cc1S(=O)(=O)N1CCCC(C)(C(=O)NCc2cccc(F)c2)C1 (configuration not stated) | 1020 |
| Cc1c(-c2ccc(O)cc2)n(Cc2ccc(OCCN3CCCCCC3)cc2)c2ccc(O)cc12 | 720 |
| CCn1nccc1C(=O)N1C[C@@H]2C[C@H](NS(=O)(=O)c3ccccc3)[C@H]1C2 | 677 |
| CCc1ccc(NC(=O)C2CCCN2S(=O)(=O)c2cc3c(cc2C)NC(=O)C(C)O3)cc1 (configuration not stated) | 842 |
| COc1ccc2[nH]c(=O)c(CCC(=O)NCCCOC(C)C)cc2c1 | 649 |
| CCC(=O)N1c2ccc(S(=O)(=O)N3CCCCC3)cc2CC1C(=O)NCc1ccc(Cl)cc1 (configuration not stated) | 924 |
| CC(C)n1c(=O)c(NCc2ccccc2C(F)(F)F)nc2ccncc21 | 714 |
| Cc1[nH]c(C(=O)N2CCN(c3cccc(Cl)c3)CC2)c(C)c1S(=O)(=O)N1CCOCC1 | 883 |
| COC(=O)c1cc(OCC(=O)Nc2ccc(OC)cc2)c2cc(OC)ccc2n1 | 775 |
| CC(C)(C)NC(=O)N1CCCN(S(C)(=O)=O)CC1 | 614 |
| Cc1ccc(CN2CCC(CNC(=O)c3c(C)oc4ncnc(N5CCOCC5)c34)C2)cc1 (configuration not stated) | 853 |
| CCN1C(=O)COc2ccc(-c3csc(NC(=O)c4ccccc4F)n3)cc21 | 968 |
| COc1ccc(-c2cn3c(CC(=O)N4CCN(c5ccc(F)cc5)CC4)csc3n2)cc1OC | 743 |
| O=C(C1CCN(c2ncnc3c2oc2ccccc23)CC1)N1CCN(c2ccccc2F)CC1 | 832 |
| CCOc1ccccc1C(=O)Nc1c(C(=O)Nc2ccccc2F)oc2cccnc12 | 841 |

| SMILES | RP-LC retention time [s] |
| --- | --- |
| COc1ccc(CCN2CCC(CNS(=O)(=O)c3cc(-c4cc(C)no4)cs3)CC2)cc1 | 718 |
| O=C(Cc1csc2nc(-c3ccccc3)cn12)N1CCN(c2ccccc2)CC1 | 820 |
| CCOC(=O)C(C)NC(=O)N1CCCN(C2=NS(=O)(=O)C(c3ccccc3)=C2C)CC1 (configuration not stated) | 761 |
| CC(C)c1ccc2c(c1)-c1ccccc1S(=O)(=O)N2CC(=O)NCc1cccnc1 | 711 |
| COc1ccc2c(c1)c(CN1CCC(C(=O)NCCN3CCCCC3)CC1)cn2C | 562 |
| CCn1c(=O)oc2cc(-c3noc(-c4cc(C)cc(C)c4)n3)ccc21 | 1300 |
| O=C(c1ccc(F)cc1Cl)N1CCN(C(=O)c2nnn3c2COC(c2ccccc2)C3)CC1 (configuration not stated) | 887 |
| COc1cccc(-c2cc3c(=O)n(CC(O)c4cccc(C#N)c4)ccn3n2)c1 (configuration not stated) | 796 |
| COc1cccc(-c2cc3n(n2)CCCN(Cc2cccnc2)C3)c1 | 526 |
| COc1ccc(-c2nc(C)c3c(n2)N(C(C)C)C(=O)C3)cc1 | 929 |
| COc1ccc(OCC(=O)N2CCc3c(c(-c4nnc(-c5ccccc5Cl)o4)nn3C)C2)cc1 | 1010 |
| Cc1cccc(NC(=O)N2CCN(c3cc(N4CCCCC4)ncn3)CC2)c1C | 596 |
| CCn1nccc1C(=O)Nc1c(-c2ccccc2)nc2sc(N3CCCCC3)nn12 | 893 |
| Cc1ccc(NC(=O)N2CCCC2c2nc(-c3ccc(F)cc3F)no2)cc1 (configuration not stated) | 972 |
| CC(=O)N1CCc2cc(N3CC(C(=O)Nc4cccc(C)c4)CC3=O)ccc21 (configuration not stated) | 712 |
| O=C(NCc1ccco1)c1ccc2ccnc(N3CCN(c4ccc(Cl)cc4)CC3)c2c1 | 858 |
| COc1ccccc1N1C=C(C#N)S(=O)(=O)c2ccccc21 | 871 |
| CCN1CCCn2nc(C3CCN(S(=O)(=O)c4cnc[nH]4)CC3)cc2C1=O | 592 |
| Cc1cc(C)c2c(N3CCCC3)nc(C(=O)N3CCN(c4ccccn4)CC3)nc2n1 | 1080 |
| O=C(NCc1ccco1)C1CCN(S(=O)(=O)c2cc(C(=O)N3CCCCCC3)cs2)CC1 | 815 |
| CCOc1ccc(CN2CCC3(CC2)CC(O)CCO3)cc1 (configuration not stated) | 593 |
| O=C(NCC1(c2cccs2)CCOCC1)c1nc2ccccc2s1 | 596 |

| SMILES | RP-LC retention time [s] |
| --- | --- |
| CNC(=O)[C@@H]1C[C@H](Oc2ccccc2)CN1C(=O)COc1ccccc1 | 603 |
| CCn1cnc(S(=O)(=O)N2CCC(C(=O)NCCc3nc4ccc(C)cc4[nH]3)CC2)c1 | 589 |
| COCCNc1c(-c2ccccc2)nc2sc(C(=O)N3CCOCC3)c(C)n12 | 722 |
| O=C(NCCc1csc(C2CCCN(C(=O)C3CCOC3)C2)n1)C1CC1 (configuration not stated) | 753 |
| O=C1NCCCCCCN(C(=O)c2ccsc2)[C@H]2CCC[C@@H]12 | 733 |
| O=c1ccc(-c2ccc3c(c2)OCO3)nn1CCc1nc(-c2ccncc2)no1 | 730 |
| O=C(Nc1ccc(N2CCN(C3CCCC3)C2=O)nc1)c1ccc(F)c(F)c1 | 916 |
| COc1cc(NC(=O)C2CCCN(c3cc(=O)n(C)c(=O)n3C)C2)cc(OC)c1 (configuration not stated) | 708 |
| O=c1ccc(N2CCCC(NS(=O)(=O)Cc3ccccc3)C2)n[nH]1 (configuration not stated) | 654 |
| O=C(NCC(F)(F)F)C1CCN(C(=O)NCc2ccccc2)CC1 | 656 |
| CCOC(=O)c1ccc(NC(=O)N2CCC(CN3CCOCC3)CC2)cc1 | 610 |
| O=C(CN1CCN(C(=O)Nc2ccc(Br)cc2)CC1=O)NCCN1CCCCC1 | 602 |
| Cc1c(-c2noc(C(=O)NCCN3CCC(C)CC3)n2)oc2ccccc12 | 706 |
| Cc1ccccc1-c1noc(Cn2ccn(-c3ccccc3C)c(=O)c2=O)n1 | 880 |
| O=C(Cn1cccc1-c1nc(-c2ccc3c(c2)OCO3)no1)Nc1ccc(Cl)cc1 | 1070 |
| CCCc1ccc(S(=O)(=O)N2CCC3(CC2)NCCN=C3NCc2ccc(C)cc2)cc1 | 846 |
| O=C(Cn1cccc1-c1nnc(C2CCC2)o1)N1CCN(c2ccccc2)CC1 | 898 |
| Cc1ccc(-n2nc3c(N4CCCC(C(=O)N5CCc6ccccc65)C4)nnc(C)c3c2C)cc1 (configuration not stated) | 830 |
| CCc1cc(=O)n(CC(=O)Nc2ccccc2CC)c(N2CCOCC2)n1 | 784 |
| O=C(c1ccco1)N1CCC(O)(c2ccccc2)[C@H](N2CCCC2)C1 (some centres not stated) | 555 |
| Cn1c(N2CCCC(C(=O)NCC3CCN(Cc4cccc(F)c4)CC3)C2)cc(=O)n(C)c1=O (configuration not stated) | 575 |
